# Several values for one entry are separate records, joined by “and”; a condition that tells them apart may be missing. Equal entries are not always repeated.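 96-well plates; 48 h exposure; 5 concentrations. Endpoints by linear interpolation between flanking doses. Not reached: highest tested concentration assigned. Abbreviation: GI50, concentration required for 50% inhibition of growth. TGI denotes the concentration required for complete inhibition of growth.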
# Tests used:
# Assay in all cases: growth of human tumour cells (NCI), 48 h
# COLO 205 colon = tested on: COLO 205 colon
# U251 CNS = tested on: U251 CNS
# MCF7 breast = tested on: MCF7 breast
# BT-549 breast = tested on: BT-549 breast
# UACC-62 melanoma = tested on: UACC-62 melanoma
# MDA-MB-435 = tested on: MDA-MB-435
# SF-268 CNS = tested on: SF-268 CNS
# LOX IMVI melanoma = tested on: LOX IMVI melanoma
# TK-10 renal = tested on: TK-10 renal
# NCI-H460 lung = tested on: NCI-H460 lung
Structure (SMILES),GI50 (COLO 205 colon),TGI (COLO 205 colon),GI50 (U251 CNS),TGI (U251 CNS),GI50 (MCF7 breast),TGI (MCF7 breast),GI50 (BT-549 breast),TGI (BT-549 breast),GI50 (UACC-62 melanoma),TGI (UACC-62 melanoma),GI50 (MDA-MB-435),TGI (MDA-MB-435),GI50 (SF-268 CNS),TGI (SF-268 CNS),GI50 (LOX IMVI melanoma),TGI (LOX IMVI melanoma),GI50 (TK-10 renal),TGI (TK-10 renal),GI50 (NCI-H460 lung),TGI (NCI-H460 lung)
COc1cc2c3c(n(CCCN=[N+]=[N-])c(=O)c2cc1OC)-c1ccc(F)cc1C3=O,23.8 µM,> 100 µM,4.6 µM,55.6 µM,3.78 µM,> 100 µM,12.4 µM,> 100 µM,5.27 µM,> 100 µM,38.1 µM,> 100 µM,3.8 µM,> 100 µM,4.04 µM,> 100 µM,73.7 µM,> 100 µM,1.87 µM,13.3 µM
CC(=O)OCC1OC(SC2=N/C(=C\c3ccc(Br)s3)C(=O)N2c2ccccc2)C(OC(C)=O)C(OC(C)=O)C1OC(C)=O (stereo not drawn),–,> 100 µM,28 µM and 63.1 µM,> 100 µM,–,> 100 µM,–,> 100 µM,–,> 100 µM,86.3 µM and 32.2 µM,> 100 µM,–,> 100 µM,–,> 100 µM,–,> 100 µM,–,> 100 µM
Oc1ccc(N=Nc2ccc(Br)cc2)c(O)c1,17.8 µM,48.9 µM,3.59 µM,24.8 µM,2.2 µM,54.3 µM,2.67 µM,8.3 µM,3.01 µM,20.8 µM,1.25 µM,3.65 µM,5.84 µM,> 100 µM,8.05 µM,61.1 µM,4.95 µM,24.8 µM,3.29 µM,21.5 µM
OCC1OC(N2C=C(c3nc4ccccc4s3)C3C=CC=CC32)C(O)C(O)C1O (stereo not drawn),9.38 µM,20.9 µM,16.6 µM,> 50 µM,18.1 µM,> 50 µM,16.5 µM,> 50 µM,12.5 µM,36.8 µM,11.8 µM,28.1 µM,15 µM,> 50 µM,10.9 µM,26 µM,12.5 µM,32 µM,24 µM,> 50 µM
CC(C)[C@@]12C[C@@H](OC(=O)C3CO3)[C@@](C)(O1)[C@@H]1CC[C@@H](C)[C@H]1[C@@H]2OC(=O)/C=C/c1ccccc1 (stereo partly drawn),27.8 µM,> 100 µM,18.7 µM,44.3 µM,19.8 µM,83.3 µM,11.3 µM,27.8 µM,14.9 µM,34.4 µM,18.4 µM,38.3 µM,12.1 µM,40.2 µM,17 µM,36.7 µM,29.6 µM,65.8 µM,17.2 µM,34.2 µM
O=C(Nc1ccc(I)cc1F)c1cc(Br)ccc1O,3.83 µM,13.4 µM,0.754 µM,> 100 µM,0.78 µM,7.76 µM,0.37 µM,1.76 µM,0.25 µM,0.812 µM,0.652 µM,4.64 µM,0.498 µM,8.07 µM,0.474 µM,2.75 µM,1.62 µM,9.3 µM,0.452 µM,8.05 µM
COc1ccc(Nc2ncc(I)c(NCCCNC(=O)C3CCC3)n2)cc1,3.07 µM,12.2 µM,2.08 µM,28.9 µM,8.31 µM,> 100 µM,2.52 µM,7.92 µM,17.2 µM,43.2 µM,17.1 µM,> 100 µM,2.01 µM,29.9 µM,1.66 µM,13.6 µM,0.897 µM,9.78 µM,5.19 µM,36.8 µM
COc1cc(CSc2nc3ccc(Cl)cc3c(=O)n2Cc2ccccc2)cc(OC)c1OC,1.56 µM,4.05 µM,4.36 µM,35.7 µM,1.34 µM,45.5 µM,6.19 µM,90.6 µM,2.34 µM,25.2 µM,0.406 µM,11.6 µM,7.33 µM,> 100 µM,5.97 µM,> 100 µM,10.3 µM,51.8 µM,3.33 µM,> 100 µM
O=C1CN=C(c2ccc[nH]2)c2cc(Cl)ccc2N1,> 100 µM,> 100 µM,71.8 µM,> 100 µM,> 100 µM,> 100 µM,53.3 µM,> 100 µM,95 µM,> 100 µM,> 100 µM,> 100 µM,> 100 µM,> 100 µM,17.9 µM,> 100 µM,> 100 µM,> 100 µM,4.38 µM,> 100 µM
CCOc1ccccc1/C=N\N=C(N/N=C/c1ccccc1OCC)N/N=C/c1ccccc1OCC,1.43 µM,2.98 µM,1.53 µM,> 100 µM,0.715 µM,> 100 µM,2.67 µM,> 100 µM,2.05 µM,> 100 µM,3.44 µM,> 100 µM,1.62 µM,> 100 µM,1.8 µM,> 100 µM,2.81 µM,> 100 µM,1.35 µM,> 100 µM
CCOC(=O)c1ccc(N2NC(=O)/C(=C/c3ccc([N+](=O)[O-])o3)C2=O)cc1,4.06 µM,9.46 µM,39.9 µM,> 66.6 µM,17.4 µM,35.9 µM,20.1 µM,39.7 µM,19.9 µM,43 µM,15.1 µM,33 µM,24.2 µM,> 55.3 µM,17.7 µM,34.4 µM,9.04 µM,23.2 µM,> 43.3 µM,> 60.7 µM
CC[C@]12CN3CCc4c([nH]c5ccccc45)[C@@](C(=O)OC)(c4cc5c(cc4OC)N(C)[C@H]4[C@@](O)(C(=O)OC)[C@H](OC(C)=O)[C@]6(CC)C=CCN7CC[C@]54[C@@H]76)CC(C3)[C@H]1O2 (stereo partly drawn),0.092 µM,1.03 µM and 0.387 µM,0.137 µM,34 µM and > 50 µM,0.0181 µM,> 33.9 µM,0.343 µM,–,0.224 µM,76.9 µM and > 50 µM,0.0161 µM,0.0252 µM and 0.0878 µM,0.226 µM,> 68.1 µM,0.145 µM,> 100 µM,0.562 µM,> 100 µM,0.167 µM,10.9 µM and > 27.4 µM
Cc1ccc(/C(=N/NS(=O)(=O)c2cc(C)c(Cl)cc2Cl)Sc2cc(Cl)c(C)cc2S(N)(=O)=O)cc1,> 100 µM,> 100 µM,> 100 µM,> 100 µM,> 100 µM,> 100 µM,83.5 µM,> 100 µM,> 100 µM,> 100 µM,> 100 µM,> 100 µM,> 100 µM,> 100 µM,> 100 µM,> 100 µM,> 100 µM,> 100 µM,> 100 µM,> 100 µM
CCc1cc2c(c(OCC(F)(F)F)c(C(=O)NC3CCN(C(=O)CO)CC3)n2C)c(=O)n1CC(=O)c1ccccc1,> 100 µM,> 100 µM,> 82.9 µM,> 100 µM,44 µM,> 100 µM,51.3 µM,> 100 µM,57.8 µM,> 100 µM,> 100 µM,> 100 µM,> 90.3 µM,> 100 µM,> 80 µM,> 100 µM,> 100 µM,> 100 µM,> 57.8 µM,> 100 µM
CCn1nc(C2CCN(C(=O)CCO)CC2)nc1-c1cnc(N)c(-c2nnc(C(C)(C)C)o2)n1,2.85 µM,21.5 µM,> 65.5 µM,> 100 µM,0.375 µM,> 100 µM,7.28 µM,> 100 µM,2.07 µM,> 100 µM,13 µM,> 100 µM,23.1 µM,> 100 µM,3.2 µM,19.8 µM,1.95 µM,> 100 µM,3.9 µM,> 100 µM
Cc1nnn(C)c1-c1cnc2c3ccc(C(C)(C)O)cc3n([C@H](c3ccccc3)C3CCOCC3)c2c1,< 0.01 µM,30.1 µM,0.27 µM,> 47.5 µM,< 0.01 µM,> 100 µM,3.61 µM,24 µM,< 0.01 µM,12.7 µM,< 0.01 µM,> 100 µM,5.22 µM,> 100 µM,< 0.01 µM,1.52 µM,< 0.01 µM,11 µM,0.966 µM,> 65.7 µM
c1cc(OCCN2CCCC2)ccc1CNc1ccc2nc(CCC3CCCCC3)[nH]c2c1,1.7 µM,3.35 µM,1.41 µM,3.16 µM,1.63 µM,4.66 µM,1.56 µM,3.17 µM,1.85 µM,3.33 µM,1.62 µM,3.08 µM,1.82 µM,4.38 µM,1.67 µM,3.11 µM,2.98 µM,7.97 µM,2.13 µM,4.87 µM
Clc1cc(Br)ccc1-c1ccc(CNCC2CCNCC2)o1,1.89 µM,3.51 µM,2.17 µM,4.03 µM,1.74 µM,3.35 µM,1.73 µM,3.5 µM,1.69 µM,3.21 µM,1.84 µM,3.46 µM,1.57 µM,3.04 µM,1.86 µM,3.7 µM,1.75 µM,3.37 µM,1.87 µM,3.72 µM
COc1cc2c(cc1OC)[C@@H]1C(=O)c3ccc4c(c3O[C@@H]1CO2)C[C@H](C(C)C)O4,6.19 µM,20.8 µM,4.57 µM,> 38.2 µM,2.66 µM,> 52.2 µM,0.279 µM,20.8 µM,9.24 µM,> 100 µM,4.06 µM,> 36.7 µM,11.7 µM,> 62.2 µM,0.264 µM,–,5.37 µM,> 49 µM,4.33 µM,45.8 µM
COc1cc2c3c(n(CCCN=[N+]=[N-])c(=O)c2cc1OC)-c1ccc([N+](=O)[O-])cc1C3=O,> 100 µM,> 100 µM,> 100 µM,> 100 µM,27.9 µM,> 100 µM,14.4 µM,98.8 µM,68.7 µM,> 100 µM,> 100 µM,> 100 µM,33.4 µM,> 100 µM,61 µM,> 100 µM,> 100 µM,> 100 µM,49.5 µM,> 100 µM
CCCN(CCC)c1ccc(/C=N/NC(=O)c2cccnc2)c(C)c1,14.5 µM,27.6 µM,13.3 µM,26 µM,17.7 µM,36.8 µM,15.2 µM,29.3 µM,11.4 µM,24.6 µM,5.67 µM,20.8 µM,13.9 µM,31.2 µM,13.5 µM,27.6 µM,16 µM,38.5 µM,14.2 µM,28.3 µM
Cc1ccc(-c2cc(C(=O)Nc3ccc(S(=O)(=O)N4CCCCC4)cc3)[nH]n2)c(O)c1,> 100 µM,> 100 µM,> 100 µM,> 100 µM,> 100 µM,> 100 µM,> 100 µM,> 100 µM,> 100 µM,> 100 µM,> 100 µM,> 100 µM,> 100 µM,> 100 µM,> 100 µM,> 100 µM,> 100 µM,> 100 µM,> 100 µM,> 100 µM
O=C1OC2(c3ccc(O)cc3Oc3cc(O)ccc32)c2cccc3cccc1c23,17.2 µM,33.2 µM,18.1 µM,39.3 µM,19.9 µM,91.3 µM,21.6 µM,62.7 µM,17.3 µM,42.5 µM,19.1 µM,38 µM,29.5 µM,> 100 µM,18.1 µM,36 µM,27.4 µM,58.1 µM,23.1 µM,61.4 µM
CC(=O)O[C@@H]1c2c(c3c(=O)c4cccc(O)c4c(=O)c=3c2=[N+]=[N-])[C@H](OC(C)=O)[C@@H](OC(C)=O)[C@]1(C)O,0.605 µM and 0.16 µM,1.29 µM and 0.296 µM,0.532 µM and 0.101 µM,1.14 µM and 0.222 µM,0.142 µM,1.11 µM and 0.291 µM,–,1.33 µM,0.297 µM,1.35 µM and 1.02 µM,0.27 µM,1.42 µM and 0.88 µM,0.391 µM,0.914 µM and 1.67 µM,–,0.413 µM and 0.275 µM,0.191 µM,1.14 µM and 0.365 µM,0.149 µM,1.9 µM and 0.352 µM

# Reference: PubChem BioAssay (NCI)
